Assay [1] is described as follows: Body weight in collagenase-induced osteoarthritis rat model. The assay is classed as in vivo, Wistar rats.
Method: In order to understand the anti-inflammatory and antioxidant potential of the nanoparticles of the invention in vivo an experimental animal model of osteoarthritis (OA) was established. The OA lesions were caused by matrix degradation of articular cartilage using enzymatic means, such as collagenase type-II. Following the induction of osteoarthritis, the studied nanoparticles were administered for 8 weeks in which period the morphological and behavioral changes were measured and finally histological analysis of the articular cartilage samples concluded the in vivo study.
Rats were anesthetized with chloral hydrate. The right knee joints of Group I were injected with normal saline solution and served as a control. Animals from the groups II, III, IV, V, VI, VII were injected with collagenase type II (Clostridium histolyticum). Collagenase (125 collagen digestion unit/mg) was dissolved in saline, and it was injected intra-articularly into the right knee joint twice on days 1 and 4 of the experiment (Al-Saffar, F., H. Ganabadi and S. Fakurazi. Collagenase and sodium iodoacetate-induced experimental osteoarthritis model in Sprague dawley rats. Asian J. Sci. Res. 2: 1-13, 2009). The left knees of all animals were left untreated as a control.
Changes in body weight and knee diameter were measured on the 1st, 4th,11th,21st,31st,41st,51st, 61st, 71st day before every injection. Knee diameter was measured using a digital caliper. […] A change in body weight is also measured as one of the parameters to assess the course of the disease in the OA animal models.
The test system of assay [2] is experimental animal model of osteoarthritis (OA). In words: von Frey mechanical allodynia test in osteoarthritis rat model. It is filed as in vivo, Wistar rats. The note with it: for Paw Withdrawal Threshold (%): right paw/(right paw + left paw)*100. The procedure: Healthy adult male Wistar rats (150-200 g) were used for the study, with water and food ad libitum, at a constant temperature of 22°C and controlled lighting (12 h light/12 h dark cycle). […] As far as the dispersion procedure of the injectables is concerned, all the natural compounds were dissolved in saline solution, whereas the studied nanoparticles were mechanically grinded in a mortar and pestle set with saline solution and Tween 20 (2% w/v) and heated at 36 °C before each treatment. There were six treatments administered every 10 days. At the end of the experiment rats were euthanized and both knees were collected for histological analysis. Rats were anesthetized with chloral hydrate. The right knee joints of Group I were injected with normal saline solution and served as a control. Animals from the groups II, III, IV, V, VI, VII were injected with collagenase type II (Clostridium histolyticum). Collagenase (125 collagen digestion unit/mg) was dissolved in saline, and it was injected intra-articularly into the right knee joint twice on days 1 and 4 of the experiment ([…] and S. Fakurazi. Collagenase and sodium iodoacetate-induced experimental osteoarthritis model in Sprague dawley rats. Asian J. Sci. Res. 2: 1-13, 2009). The left knees of all animals were left untreated as a control. For the evaluation of the effectiveness and time of release of the encapsulated compounds, all animals were subjected to a series of behavioral testing in addition to the measurements of body weight and knees diameter change. The experimental protocol of the present study followed the combination of three different behavioral tests, which are von Frey mechanical allodynia test, grid walking and slope walking test. Behavioral tests are performed in three phases, at the beginning before the start of treatment, in the middle of treatment (approximately 35-40 days) and at the end (after the 70th day). Mechanical allodynia was tested by the von Frey method which detects pain threshold as the paw withdrawal response. For the testing, rats were placed into plastic chambers that allow access to the plantar surface of the hind paws. […] In Table 15 below, the nociceptive threshold is defined as: nociceptive threshold (%) = ([…])/((nociceptive; threshold on right paw + nociceptive threshold of left paw))*100 [formula] Table 13: von Frey-paw withdrawal threshold (g)

Where [3] appears, read: 40 days (half of experimental protocol).
Setting [4] is: 70 days (end of experimental protocol).

`C[C@@H]1O[C@@H](O[C@H]2[C@H](Oc3cc(O)c4c(c3)O[C@H](c3ccc(O)cc3)CC4=O)O[C@H](CO)[C@@H](O)[C@@H]2O)[C@H](O)[C@H](O)[C@H]1O` [S1 [NAR], Naringin]: the “Body Weight (BW)” value in assay [1] (1st injection CO/saline (before treatment)) is 247 g; in assay [1] (1st treatment, 10 mg/kg (S1, ibuprofen i.p.; nanoparticles i.a.), every 10 days), 239 g; in assay [1] (2nd injection CO/saline (before treatment)), 236 g; in assay [1] (2nd treatment, 10 mg/kg (S1, ibuprofen i.p.; nanoparticles i.a.)) it was 247 g; in assay [1] (3rd treatment, 10 mg/kg (S1, ibuprofen i.p.; nanoparticles i.a.)), 276 g; in assay [1] (4th treatment, 10 mg/kg (S1, ibuprofen i.p.; nanoparticles i.a.)) it was 294 g. Also, the “Body Weight (BW)” value in assay [1] (5th treatment, 10 mg/kg (S1, ibuprofen i.p.; nanoparticles i.a.)) is listed as 317 g; in assay [1] (6th treatment, 10 mg/kg (S1, ibuprofen i.p.; nanoparticles i.a.)), 326 g; in assay [1] (final, 10 mg/kg (S1, ibuprofen i.p.; nanoparticles i.a.)) it was 333 g. Further, the “% Changes in Body Weight (BW)” value in assay [1] (11 days (before treatment)) is recorded as -3,2%; in assay [1] (setting [3]), 19,0%; in assay [1] (setting [4]) it was 34,8%. Besides, the “von Frey-paw withdrawal threshold” value was 63 g in assay [2] (11 days (before treatment)); 81,12 g in assay [2] (40 days (half of experimental protocol), 10 mg/kg (S1, ibuprofen i.p.; nanoparticles i.a.)); 83,96 g in assay [2] (70 days (end of experimental protocol), 10 mg/kg (S1, ibuprofen i.p.; nanoparticles i.a.)); 88,68 g in assay [2] (left-control paw). For the same molecule, the “paw withdrawal thresholds after commencement of treatment (in words)” value in assay [2] (rat, in vivo) is “presented an increase”. Also, the “Paw Withdrawal Threshold (%)” value in assay [2] (11 days (before treatment)) was 41,53%; in assay [2] (setting [3]), 45,55%; in assay [2] (setting [4]), 45,95%.
